Measurements reported in patent publication US20190062684A1, “Microfluidic System for Reproducing Functional Units of Tissues and Organs In Vitro” (NORTIS, INC., priority 2012, published 2019).

Test system: vascular-cell tube (engineered from primary human microvascular endothelial cells)

average permeability through the vascular-cell tube wall: 25 ×10⁻⁶ cm/s
Compound: O=C(O)c1ccccc1-c1c2cc(F)c(=O)cc-2oc2cc(O)c(F)cc12 [Oregon Green]
